# In patent US9815841B2, “Compounds” (GLAXOSMITHKLINE INTELLECTUAL PROPERTY DEVELOPMENT LIMITED, priority 2014, dated 2017):
# Molecular target: T1, purified recombinant 6HIS-Tev-LRRK2 (1326-2527) (Homo sapiens, UniProt Q5S007)
# T1 construct: A LRRK2 cDNA encoding residues 1326-2527 was received from Dundee University; made in house; host or cells: Spodoptera frugiperda (Sf9) insect cells, baculovirus (pFB-HTb)
# T1 sequence (Q5S007 1326-2527): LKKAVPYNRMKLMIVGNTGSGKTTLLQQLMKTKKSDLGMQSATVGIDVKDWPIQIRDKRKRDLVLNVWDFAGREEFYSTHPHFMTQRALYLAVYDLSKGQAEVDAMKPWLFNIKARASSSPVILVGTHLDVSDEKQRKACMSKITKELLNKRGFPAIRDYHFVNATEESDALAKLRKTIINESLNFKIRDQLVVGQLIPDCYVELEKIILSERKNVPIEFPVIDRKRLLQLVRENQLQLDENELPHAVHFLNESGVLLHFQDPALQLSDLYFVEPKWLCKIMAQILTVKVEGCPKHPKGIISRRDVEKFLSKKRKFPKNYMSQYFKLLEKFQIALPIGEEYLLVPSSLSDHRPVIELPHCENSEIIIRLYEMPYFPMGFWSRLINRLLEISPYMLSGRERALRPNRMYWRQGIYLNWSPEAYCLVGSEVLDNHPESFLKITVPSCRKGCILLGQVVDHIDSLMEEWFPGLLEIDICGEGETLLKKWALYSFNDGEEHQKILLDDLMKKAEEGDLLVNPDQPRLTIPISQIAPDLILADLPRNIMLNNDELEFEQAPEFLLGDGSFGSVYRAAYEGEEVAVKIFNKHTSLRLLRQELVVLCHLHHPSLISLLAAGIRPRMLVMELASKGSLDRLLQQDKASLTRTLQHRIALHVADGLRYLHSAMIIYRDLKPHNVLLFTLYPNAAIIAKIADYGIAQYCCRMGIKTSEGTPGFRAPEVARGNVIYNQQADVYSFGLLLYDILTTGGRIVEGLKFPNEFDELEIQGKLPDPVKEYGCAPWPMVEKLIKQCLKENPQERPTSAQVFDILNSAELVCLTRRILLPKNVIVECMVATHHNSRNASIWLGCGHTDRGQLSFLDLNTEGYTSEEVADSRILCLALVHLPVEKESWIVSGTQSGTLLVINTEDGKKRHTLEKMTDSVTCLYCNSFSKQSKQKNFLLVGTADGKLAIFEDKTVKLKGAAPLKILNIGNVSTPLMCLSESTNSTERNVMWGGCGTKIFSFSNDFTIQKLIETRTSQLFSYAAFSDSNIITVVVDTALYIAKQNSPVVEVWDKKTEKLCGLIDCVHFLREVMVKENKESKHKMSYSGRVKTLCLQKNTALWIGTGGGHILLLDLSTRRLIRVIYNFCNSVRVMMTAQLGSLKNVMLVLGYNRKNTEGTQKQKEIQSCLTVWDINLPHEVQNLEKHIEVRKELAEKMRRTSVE
# Test: Recombinant LRRK2 enzyme peptide substrate TR-FRET assay
# Type: biochemical
# Conditions: 60 nM LRRK2 (1326-2527), 1 uM Biotin-longer LRRKtide, 10 uM ATP; read-out: recombinant LRRK2 enzyme peptide substrate TR-FRET assay (pIC50) (converted)
# Description: This gene fragment was subcloned into pFB-HTb (Invitrogen) using BamHI and NotI restriction sites. The LRRK2 plasmid was recombined into the baculovirus genome according to the BAC-to-BAC protocol described by Invitrogen. Transfection into Spodoptera frugiperda (Sf9) insect cells was performed using Cellfectin (Invitrogen), according to the manufacturer's protocol to generate P1 and P2 baculovirus stocks.
# Sf9 cells were grown in HyClone SFX (Thermo Scientific) growth media at 27° C., 80 rpm in shake flask until of a sufficient volume to inoculate a bioreactor. […] The cells were infected with P2 Baculovirus at a multiplicity of infection (MOI) of 3. The cultivation was continued for a 48 hour expression phase. The infected cells were removed from the growth media by centrifugation at 2500 g using a Sorvall RC 3C Plus centrifuge at 2500 g for 20 minutes. The cell pellet was immediately frozen and subsequently supplied for purification.
# A 260 g pellet was allowed to thaw in a water bath at 27° C. with 800 ml lysis buffer/buffer A (50 mm Tris-HCl pH 8.5, 300 mM NaCl, 1 mm DTT, 10% glycerol, 1 ml/L calbiochem complete protease inhibitor cocktail and benzonase (50 ul/800 ml)) before being dounce homogenised on ice using 20 strokes per 100 ml. The suspension was packed in ice and sonicated at 50% amplitude for 3 min 10 sec on/off using a ¾″ probe. The suspension was then centrifuged at 100,000 g for 90 min, at 4° C.
# The lysate (700 ml) was decanted from the insoluble pellet and contacted for 3 h at 4 C with 10 ml His bind Ni NTA resin by end over end mixing. The resin was recovered by centrifugation, 3000 g, 5 min at 4 C, and packed in an XK16 column. The column was then washed with 10 column volumes buffer A, 10 column volumes buffer B (buffer A+1M NaCl) and 10 column volumes buffer C (buffer A+20 mM imidazole). The column was then eluted with 15 column volumes buffer D (buffer A+300 mM imidazole) collecting 2 ml fractions. All washes and elution were conducted at 4 ml/min.
# Fractions identified by SDS-PAGE as containing protein of interest were pooled and loaded directly onto a 320 ml SEC Superdex 200 pg column that was pre-equilibrated with buffer E (50 mM Tris-HCl pH 8.5, 300 mM NaCl, 10% glycerol, 1 mM DTT). The column was loaded and eluted with 1.2 column volumes buffer E at 2 ml/min collecting 2 ml fractions. Fractions identified by SDS-PAGE as containing protein of interest were tested for activity.
# Production of Biotin-Longer LRRKtide
# The resulting crude peptide was cleaved from the resin using a 95:2.5:2.5 mix of trifluoroacetic acid:triisopropylsilane:water.
# Recombinant LRRK2 Enzyme Peptide Substrate TR-FRET Assay
# Assay Protocol • 1. A 10 mM test compound was dissolved in 100% DMSO and serially diluted 1 in 4. 100 nL was then added to a 384 well low volume black plate, excluding columns 6 and 18. 100 nL of DMSO was added to columns 6 and 18 as controls wells. […] Test plates were then incubated for 30 minutes at room temperature. • 3. 3 uL ‘substate solution’ containing 2 uM Biotin-longer LRRKtide peptide substrate and 20 uM ATP was added to all wells of the plate using a multidrop combi dispenser giving a final assay concentration of 1 uM Biotin-longer LRRKtide and 10 uM ATP. Test plates were then incubated for 2 hours at room temperature. (Incubation may vary depending on rate and linearity of reaction with different enzyme batches). • 4. […] Data is analysed using ActivityBase software (IDBS). Dilutions and concentrations of reagents determined on a batch to batch basis
row,Structure (SMILES),IC50 [nM]
1,"CCOc1nc(Nc2cc(F)c(C(=O)N3CCN(C)CC3)cc2OC)nc2[nH]ccc12 [Example E5, (4-((4-ethoxy-7H-pyrrol-[2,3-d]pyrimidin-2-yl)amino)-2-fluoro-5-methoxyphenyl)(4-methylpiperazin-1-yl)-methanone]",≤ 10
2,"CCOc1nc(Nc2ccc(C(=O)N3CCN(C)CC3)cc2OC(F)F)nc2[nH]ccc12 [Example E7, (3-(difluoromethoxy)-4-((4-ethoxy-7H-pyrrolo-[2,3-d]-pyrimidin-2-yl)amino)phenyl)(4-methylpiperazin-1-yl)-methanone]",≤ 10
3,"CCOc1cc(C(=O)N2CCN(C)CC2)ccc1Nc1nc(OCC)c2cc[nH]c2n1 [Example E25, (3-ethoxy-4-((4-ethoxy-7H-pyrrolo-[2,3-d]pyrimidin-2-yl)amino)phenyl)(4-methylpiperazin-1-yl)methanone]",≤ 10
4,"CCOc1nc(Nc2ccc(C(=O)N3CCC[C@@H]3COC)cc2OC)nc2[nH]ccc12 [Example E35, (R)-(4-((4-ethoxy-7H-pyrrolo-[2,3-d]pyrimidin-2-yl)amino)-3-methoxyphenyl)(2-(methoxymethyl)pyrrolidin-1-yl)methanone]",≤ 10
5,"CCOc1nc(Nc2ccc(C(=O)N3CCN(C)[C@@H](C)C3)cc2OC)nc2[nH]ccc12 [Example E41, (S)-(3,4-dimethylpiperazin-1-yl)(4-((4-ethoxy-7H-pyrrolo-[2,3-d]-pyrimidin-2-yl)amino)-3-methoxyphenyl)methanone]",≤ 10
6,"CCOc1nc(Nc2ccc(C(=O)N3CCC(COC)CC3)cc2OC)nc2[nH]ccc12 [Example E42, (4-((4-ethoxy-7H-pyrrolo-[2,3-d]-pyrimidin-2-yl)amino)-3-methoxyphenyl)(4-(methoxymethyl)piperidin-1-yl)methanone]",≤ 10

# The next lines start with the values.
row,IC50 [nM],Structure (SMILES)
1,≤ 10,"CCOc1nc(Nc2ccc(C(=O)N3CC4CC4(CO)C3)cc2OC)nc2[nH]ccc12 (single isomer, unassigned) [Example E46, (4-((4-ethoxy-7H-pyrrolo-[2,3-d]-pyrimidin-2-yl)amino)-3-methoxyphenyl)(1-(hydroxymethyl)-3-azabicyclo-[3.1.0]-hexan-3-yl)methanone]"
2,≤ 10,"CCOc1nc(Nc2ccc(C(=O)N3CCC4(CC3)CC4COC)cc2OC)nc2[nH]ccc12 (single isomer, unassigned) [Example E52, (4-((4-ethoxy-7H-pyrrolo-[2,3-d]-pyrimidin-2-yl)amino)-3-methoxyphenyl)(1-(methoxymethyl)-6-azaspiro-[2.5]-octan-6-yl)methanone]"
3,≤ 10,"CCOc1nc(Nc2ccc(C(=O)N3CC4CC4(COC)C3)cc2OC)nc2[nH]ccc12 (single isomer, unassigned) [Example E64, (4-((4-ethoxy-7H-pyrrolo-[2,3-d]pyrimidin-2-yl)amino)-3-methoxyphenyl)-(1-(methoxymethyl)-3-azabicyclo[3.1.0]hexan-3-yl)methanone]"
4,≤ 10,"CCOc1nc(Nc2ccc(C(=O)N3CCN(C)CC3)cc2OCC2CC2)nc2[nH]ccc12 [Example E8, (3-(cyclopropylmethoxy)-4-((4-ethoxy-7H-pyrrolo-[2,3-d]-pyrimidin-2-yl)amino)phenyl)(4-methylpiperazin-1-yl)-methanone]"
5,≤ 10,"CCOc1nc(Nc2ccc(C(=O)N3CCN(C)[C@H](C)C3)cc2OC)nc2[nH]ccc12 [Example E29, (R)-(3,4-dimethylpiperazin-1-yl)-(4-((4-ethoxy-7H-pyrrolo-[2,3-d]-pyrimidin-2-yl)amino)-3-methoxyphenyl)methanone]"
6,≤ 10,"CCOc1nc(Nc2ccc(C(=O)N3CCC(F)CC3)cc2OC)nc2[nH]ccc12 [Example E36, (4-((4-ethoxy-7H-pyrrolo-[2,3-d]pyrimidin-2-yl)amino)-3-methoxyphenyl)(4-fluoropiperidin-1-yl)methanone]"
7,≤ 10,"CCOc1nc(Nc2ccc(C(=O)N3CCCC4(COC4)C3)cc2OC)nc2[nH]ccc12 [Example E44, (4-((4-ethoxy-7H-pyrrolo-[2,3-d]pyrimidin-2-yl)amino)-3-methoxyphenyl)(2-oxa-6-azaspiro-[3.5]nonan-6-yl)methanone]"
8,≤ 10,"CCOc1nc(Nc2ccc(C(=O)N3[C@H](C#N)C[C@@H]4C[C@@H]43)cc2OC)nc2[nH]ccc12 [Example E66, (1 S,3S,5S)-2-(4-((4-ethoxy-7H-pyrrolo-[2,3-d]pyrimidin-2-yl)amino)-3-methoxybenzoyl)-2-azabicyclo-[3.1.0]-hexane-3-carbonitrile]"
